For one assay, the target named is Pim1 kinase (Homo sapiens, UniProt P11309). Nature of the assay: KinaseGlo Pim1 ATP depletion assay. In kind it is biochemical. The following applies: Table 4, 2.5 nM PIM1, 20 μM ATP, 40 μM BAD peptide. As for the experimental part: The activity of PIM1 is measured using a luciferase-luciferin based ATP detection reagent to quantify ATP depletion resulting from kinase-catalyzed phosphoryl transfer to a peptide substrate. Compounds to be tested are dissolved in 100% DMSO and directly distributed into white 384-well plates at 0.5 μl per well. […] After 15 minutes, 10 μl of 40 μM ATP in assay buffer is added. […] The reaction is performed until approximately 50% of the ATP is depleted, then stopped with the addition of 20 μl KinaseGlo Plus (Promega Corporation) solution. The stopped reaction is incubated for 10 minutes and the remaining ATP detected via luminescence on the Victor2 (Perkin Elmer).
Pim1 kinase, sequence (P11309 whole entry): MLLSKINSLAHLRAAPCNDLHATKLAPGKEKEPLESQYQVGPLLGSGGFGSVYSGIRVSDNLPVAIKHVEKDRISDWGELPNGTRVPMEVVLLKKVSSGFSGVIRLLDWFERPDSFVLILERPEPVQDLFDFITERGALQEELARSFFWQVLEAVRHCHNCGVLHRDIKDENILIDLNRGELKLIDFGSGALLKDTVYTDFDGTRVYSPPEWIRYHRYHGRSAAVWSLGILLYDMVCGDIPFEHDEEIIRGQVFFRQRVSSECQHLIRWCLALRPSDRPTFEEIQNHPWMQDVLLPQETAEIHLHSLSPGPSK
A general note: Kinase-Glo measures the ATP left after a reaction by luminescence.

The next assay has as its target Pim2 kinase (Homo sapiens, UniProt Q9P1W9). Nature of the assay: KinaseGlo Pim2 ATP depletion assay. In kind it is biochemical. The conditions noted are these: Table 4, 5 nM PIM2, 4 μM ATP, 10 μM BAD peptide.
A further assay concerns the target Pim3 kinase (Homo sapiens, UniProt Q86V86). The experiment in a line: KinaseGlo Pim3 ATP depletion assay. In kind it is biochemical. The conditions noted are these: Table 4, 40 μM ATP, 100 μM BAD peptide. As for the experimental part:
The activity of PIM3 is measured using a luciferase-luciferin based ATP detection reagent to quantify ATP depletion resulting from kinase-catalyzed phosphoryl transfer to a peptide substrate. Compounds to be tested are dissolved in 100% DMSO and directly distributed into white 384-well plates at 0.5 μl per well. […] After 15 minutes, 10 μl of 80 μM ATP in assay buffer is added. Final assay concentrations are 5 nM PIM1, 40 μM ATP, 100 μM BAD peptide and 2.5% DMSO. The reaction is performed until approximately 50% of the ATP is depleted, then stopped by the addition of 20 μl KinaseGlo Plus (Promega Corporation) solution. The stopped reaction is incubated for 10 minutes and the remaining ATP detected via luminescence on the Victor2 (Perkin Elmer).

Assay [1] relates to KMS11 (human myeloma cell line). The experiment in a line: Cell proliferation assay (CellTiter-Glo) in KMS11 cells. It counts as cell-based. The following applies: KMS-11, 72 h, Table 4, 3 days, read-out: KMS11-luc EC50. Put shortly: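 KMS11 cells at 2000 per well in IMDM/10% FBS were exposed to compound for 3 days. Viability was read by CellTiter-Glo luminescence.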
(In ATP-based viability assays light output follows the ATP content of the culture.)

This note sets out measurements from patent US20120225061A1, “TETRASUBSTITUTED CYCLOHEXYL COMPOUNDS AS KINASE INHIBITORS” (priority 2011, published 2012).

SMILES strings stand for the structures.

Pim2 kinase, sequence (Q9P1W9 whole entry): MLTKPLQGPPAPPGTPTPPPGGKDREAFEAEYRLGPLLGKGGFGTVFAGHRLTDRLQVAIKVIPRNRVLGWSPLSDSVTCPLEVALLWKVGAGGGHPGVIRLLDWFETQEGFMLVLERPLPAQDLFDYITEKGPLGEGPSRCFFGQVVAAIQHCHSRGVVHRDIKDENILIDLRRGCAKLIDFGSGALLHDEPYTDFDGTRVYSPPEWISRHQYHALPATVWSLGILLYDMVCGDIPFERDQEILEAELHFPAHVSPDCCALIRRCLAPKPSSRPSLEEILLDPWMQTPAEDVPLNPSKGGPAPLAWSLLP

`C[C@H]1C[C@@H](c2ccncc2NC(=O)c2nc(-c3c(F)cccc3F)c(F)cc2N)C[C@@H](O)[C@]1(C)O` [Example 48, 3-amino-6-(2,6-difluorophenyl)-N-(4-((1R,3R,4R,5S)-3,4-dihydroxy-4,5-dimethylcyclohexyl)pyridin-3-yl)-5-fluoropicolinamide]: the IC50 (as a rule, the concentration that gives 50% inhibition) at Pim1 kinase came out at 0.4 nM; against Pim2 kinase it was 1.3 nM; against Pim3 kinase it was 1.4 nM. Further, the EC50 (commonly the concentration giving half of the maximal effect) in assay [1] was determined as 870 nM.

In the case of `C[C@@H]1C[C@H](c2ccncc2NC(=O)c2ccc(F)c(-c3c(F)cccc3F)n2)C[C@H](O)[C@]1(O)CO` [Example 60, 6-(2,6-difluorophenyl)-N-(4-((1S,3S,4R,5R)-3,4-dihydroxy-4-(hydroxymethyl)-5-methylcyclohexyl)pyridin-3-yl)-5-fluoropicolinamide], the IC50 came to 19.3 nM at Pim1 kinase, 1710 nM on Pim2 kinase and 329 nM against Pim3 kinase. Further, the EC50 in assay [1] was at least 10000 nM.

`CC[C@]1(O)[C@H](C)C[C@H](c2ccncc2NC(=O)c2nc(-c3c(F)cccc3F)ncc2N)C[C@@H]1O` [Example 35, 5-amino-2-(2,6-difluorophenyl)-N-(4-((1S,3S,4S,5R)-4-ethyl-3,4-dihydroxy-5-methylcyclohexyl)pyridin-3-yl) pyrimidine-4-carboxamide]: the IC50 worked out at 49.5 nM on Pim1 kinase, 676 nM against Pim2 kinase and 150 nM against Pim3 kinase. In assay [1], the EC50 was at least 10000 nM.

For the compound `Cc1c(-c2ccc(N)c(C(=O)Nc3cnccc3[C@H]3C[C@@H](O)[C@](C)(O)[C@@H](C)C3)n2)cnn1C` [Example 143, 3-amino-N-(4-((1R,3R,4R,5S)-3,4-dihydroxy-4,5-dimethylcyclohexyl)pyridin-3-yl)-6-(1,5-dimethyl-1H-pyrazol-4-yl)picolinamide], the IC50 on Pim1 kinase is 8.8 nM; against Pim2 kinase it was 120 nM; at Pim3 kinase, 8.7 nM. For the same compound, the EC50 in assay [1] is 6690 nM.

For the compound `CC[C@]1(O)[C@H](C)C[C@H](c2ccncc2NC(=O)c2ccc(F)c(-c3c(F)cccc3F)n2)C[C@@H]1O` [Example 42, 6-(2,6-difluorophenyl)-N-(4-((1S,3S,4S,5R)-4-ethyl-3,4-dihydroxy-5-methylcyclohexyl)pyridin-3-yl)-5-fluoropicolinamide], the IC50 at Pim1 kinase stood at 44.6 nM; on Pim2 kinase, 846 nM; on Pim3 kinase, 434 nM. Further, the EC50 in assay [1] is at least 10000 nM.

`CC[C@]1(O)[C@H](O)C[C@H](c2ccncc2NC(=O)c2nc(-c3c(F)cccc3F)ccc2N)C[C@@H]1C` [Example 32, 3-amino-6-(2,6-difluorophenyl)-N-(4-((1R,3R,4R,5S)-4-ethyl-3,4-dihydroxy-5-methylcyclohexyl)pyridin-3-yl) picolinamide]: the IC50 was determined as 0.4 nM against Pim1 kinase, 1 nM against Pim2 kinase and 1.4 nM against Pim3 kinase. The EC50 in assay [1] worked out at 880 nM.

Consider `C[C@H]1C[C@@H](c2ccncc2NC(=O)c2ccc(F)c(-c3c(F)ccc(C#N)c3F)n2)C[C@@H](O)[C@]1(C)O` [Example 46, 6-(3-cyano-2,6-difluorophenyl)-N-(4-((1R,3R,4R,5S)-3,4-dihydroxy-4,5-dimethylcyclohexyl)pyridin-3-yl)-5-fluoropicolinamide], for which the half-maximal inhibitory concentration (IC50) was 1.4 nM against Pim1 kinase, 10.9 nM against Pim2 kinase and 3.5 nM against Pim3 kinase. The EC50 in assay [1] is at least 10000 nM.

Turning to `Cc1nn(C)cc1-c1ccc(N)c(C(=O)Nc2cnccc2[C@H]2C[C@@H](O)[C@](C)(O)[C@@H](C)C2)n1` [Example 140, 3-amino-N-(4-((1R,3R,4R,5S)-3,4-dihydroxy-4,5-dimethylcyclohexyl)pyridin-3-yl)-6-(1,3-dimethyl-1H-pyrazol-4-yl)picolinamide], the IC50 on Pim1 kinase stood at 7.5 nM; against Pim2 kinase, 130 nM; against Pim3 kinase, 15.2 nM. Moreover, the EC50 in assay [1] is at least 10000 nM.

Take `C[C@H]1C[C@@H](c2ccncc2NC(=O)c2ccnc(-c3c(F)cccc3F)n2)C[C@@H](O)[C@@]1(O)CO` [Example 39, 2-(2,6-difluorophenyl)-N-(4-((1R,3R,4S,5S)-3,4-dihydroxy-4-(hydroxymethyl)-5-methylcyclohexyl)pyridin-3-yl) pyrimidine-4-carboxamide]: the IC50 at Pim1 kinase was determined as 4.7 nM; against Pim2 kinase, 25.5 nM; at Pim3 kinase, 4.5 nM. Moreover, the EC50 in assay [1] is at least 10000 nM.

For `C[C@H]1C[C@@H](c2ccncc2NC(=O)c2nc(-c3ncccc3Cl)ccc2N)C[C@@H](O)[C@]1(C)O` [Example 144, 5-amino-3′-chloro-N-(4-((1R,3R,4R,5S)-3,4-dihydroxy-4,5-dimethylcyclohexyl)pyridin-3-yl)-2,2′-bipyridine-6-carboxamide], the IC50 is 0.7 nM against Pim1 kinase, 7.7 nM on Pim2 kinase and 2.3 nM at Pim3 kinase. For the same compound, the EC50 in assay [1] came out at 4220 nM.

As to `C[C@@H]1C[C@H](c2ccncc2NC(=O)c2cccc(-c3c(F)cccc3F)n2)C[C@H](O)[C@@]1(C)O` [Example 57, 6-(2,6-difluorophenyl)-N-(4-((1S,3S,4S,5R)-3,4-dihydroxy-4,5-dimethylcyclohexyl)pyridin-3-yl) picolinamide], the IC50 against Pim1 kinase stood at 15.1 nM; on Pim2 kinase it was 227 nM; against Pim3 kinase it was 102 nM. Further, the EC50 in assay [1] came out at 6620 nM.
